Data from ChEMBL document CHEMBL2218064, “Structure-activity relationship data for chemical series of antagonists of the P2X7 receptor (Supplementary Bioactivity Data for publication CHEMBL1157114)”.

target: T1, P2X purinoceptor 7 (Homo sapiens, UniProt Q99572); assay: SUPPLEMENTARY: Inhibition of human P2X7 receptor assessed as inhibition of ethidium bromide accumulation. Same assay as CHEMBL1103860
T1 sequence (Q99572 whole entry): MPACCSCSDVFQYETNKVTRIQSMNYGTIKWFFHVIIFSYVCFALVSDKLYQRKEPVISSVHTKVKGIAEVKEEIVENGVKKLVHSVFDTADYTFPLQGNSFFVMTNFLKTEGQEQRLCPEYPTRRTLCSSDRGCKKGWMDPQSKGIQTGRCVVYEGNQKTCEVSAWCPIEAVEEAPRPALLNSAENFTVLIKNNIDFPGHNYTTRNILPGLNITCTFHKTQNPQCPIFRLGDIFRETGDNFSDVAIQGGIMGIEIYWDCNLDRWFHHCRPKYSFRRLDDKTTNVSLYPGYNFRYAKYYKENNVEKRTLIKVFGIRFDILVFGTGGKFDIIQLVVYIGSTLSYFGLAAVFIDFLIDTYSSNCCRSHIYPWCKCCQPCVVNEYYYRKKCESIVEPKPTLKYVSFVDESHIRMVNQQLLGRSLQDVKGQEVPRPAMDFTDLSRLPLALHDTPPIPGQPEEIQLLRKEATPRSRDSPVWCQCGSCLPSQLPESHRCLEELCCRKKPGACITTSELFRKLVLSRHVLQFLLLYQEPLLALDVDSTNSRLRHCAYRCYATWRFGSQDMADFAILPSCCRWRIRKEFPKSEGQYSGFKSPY

| Compound | IC50 |
| --- | --- |
| O=C(c1ccc(F)cc1Cl)N1CCn2c(Br)cnc2C1 | 501 nM |
| O=C(c1ccc(Cl)cc1Cl)N1CCn2c(nnc2-c2ccc(F)cc2F)C1 | 100 nM |
| O=C(c1ccccc1Cl)N1CCn2c(nnc2-c2ccncn2)C1 | 158 nM |
| O=C(c1ccccc1Cl)N1CCn2c(nnc2-c2ccc(F)cn2)C1 | 39.8 nM |
| O=C(c1ccccc1Cl)N1CCn2c(nnc2-c2ccc(F)cc2)C1 | 79.4 nM |
| O=C(c1ccccc1C(F)(F)F)N1CCn2c(nnc2-c2ccccn2)C1 | 63.1 nM |
| O=C(c1ccc(F)cc1Cl)N1CCn2c(nnc2-c2ccc(F)c(F)c2)C1 | 50.1 nM |
| COc1ccccc1-c1nnc2n1CCN(C(=O)c1ccc(F)cc1Cl)C2 | 158 nM |
| O=C(c1cccc(C(F)(F)F)c1Cl)N1CCn2c(nc(C(F)(F)F)c2-c2ccc(F)cc2)C1 | 79.4 nM |
| O=C(c1ccc(Cl)cc1Cl)N1CCn2c(nc(C(F)(F)F)c2-c2ccc(F)cc2)C1 | 158 nM |
| O=C(c1ccc(F)cc1Cl)N1CCn2c(nnc2-c2cccc3cccnc23)C1 | 251 nM |
| O=C(c1ccc(F)cc1Cl)N1CCn2c(nnc2-c2cccc(Cl)c2Cl)C1 | 100 nM |
| O=C(c1ccc(F)cc1Cl)N1CCn2c(nnc2-c2cccc(F)c2F)C1 | 39.8 nM |
| O=C(c1ccc(Cl)cc1Cl)N1CCn2c(Cl)cnc2C1 | 200 nM |
| O=C(c1ccc(Cl)cc1Cl)N1CCn2c(nc(Cl)c2Cl)C1 | 39.8 nM |
| O=C(c1cccc(C(F)(F)F)c1Cl)N1CCn2c(nnc2C2CCCCC2)C1 | 50.1 nM |
| Cc1nc(-c2nnc3n2CCN(C(=O)c2ccc(F)cc2Cl)C3)cs1 | 158 nM |
| COCCc1nnc2n1CCN(C(=O)c1cccc(C(F)(F)F)c1Cl)C2 | 100 nM |
| Cn1ccnc1-c1nnc2n1CCN(C(=O)c1ccc(F)cc1Cl)C2 | 316 nM |

| Compound | IC50 |
| --- | --- |
| O=C(c1ccc(F)cc1Cl)N1CCn2c(nnc2-c2cnc(Cl)cn2)C1 | 200 nM |
| Cc1ccc(C(=O)N2CCn3c(nnc3-c3cnccn3)C2)c(C)c1 | 126 nM |
| Cc1nn(-c2ccccc2)c(C)c1CC(=O)NCc1ccccc1Br | 316 nM |
| Cc1nn(-c2ccccc2)c(C)c1CC(=O)NCc1cccc(F)c1F | 316 nM |
| Cc1nn(-c2ccccc2)c(C)c1CC(=O)NCc1c(F)cccc1Cl | 316 nM |
| Cc1nn(-c2ccccc2)c(C)c1CC(=O)NCc1cc(C(F)(F)F)ccc1Cl | 501 nM |
| Cc1nn(-c2ccccc2)c(C)c1CC(=O)NCc1cc(F)ccc1C(F)(F)F | 501 nM |
| Cc1nn(-c2ccccc2)c(C)c1CC(=O)NCc1c(Cl)cccc1Cl | 63.1 nM |
| Cc1nn(-c2ccccc2)c(C)c1CC(=O)NCc1cc(Cl)ccc1Cl | 631 nM |
| Cc1nn(-c2ccccc2)c(C)c1CC(=O)NCc1ccc(F)cc1C(F)(F)F | 158 nM |
| Cc1nn(-c2ccc(F)cc2F)c(C)c1CC(=O)NCc1ccc(F)cc1Cl | 50.1 nM |
| Cc1nn(-c2cccc(F)c2)c(C)c1CC(=O)NCc1ccc(F)cc1Cl | 200 nM |
| Cc1nn(-c2cccc(Cl)c2)c(C)c1CC(=O)NCc1ccc(F)cc1Cl | 316 nM |
| COc1cccc(-n2nc(C)c(CC(=O)NCc3ccc(F)cc3Cl)c2C)c1 | 501 nM |
| Cc1nn(-c2ccccc2F)c(C)c1CC(=O)NCc1ccc(F)cc1Cl | 158 nM |
| Cc1nn(-c2ccccc2Cl)c(C)c1CC(=O)NCc1ccc(F)cc1Cl | 100 nM |
| COc1ccccc1-n1nc(C)c(CC(=O)NCc2ccc(F)cc2Cl)c1C | 501 nM |
| Cc1ccc(-n2nc(C)c(CC(=O)NCc3ccc(F)cc3Cl)c2C)cc1 | 126 nM |

Compounds with a lower IC50, results first:

| IC50 | Compound |
| --- | --- |
| 31.6 nM | O=C(c1ccc(F)cc1C(F)(F)F)N1CCn2c(nnc2-c2ccccn2)C1 |
| 31.6 nM | O=C(c1ccc(F)cc1Cl)N1CCn2c(nc(C(F)(F)F)c2Br)C1 |
| 31.6 nM | O=C(c1ccc(Cl)cc1Cl)N1CCn2c(nnc2-c2ccncn2)C1 |
| 31.6 nM | O=C(c1ccc(Cl)c(Cl)c1)N1CCn2c(nnc2-c2cnccn2)C1 |
| 31.6 nM | O=C(c1ccc(Cl)c(C(F)(F)F)c1)N1CCn2c(nnc2-c2cnccn2)C1 |
| 31.6 nM | O=C(c1ccccc1Cl)N1CCn2c(nnc2-c2ncccc2F)C1 |
| 31.6 nM | O=C(c1cccc(C(F)(F)F)c1Cl)N1CCn2c(nc(Br)c2-c2ccc(F)cc2)C1 |
| 31.6 nM | O=C(c1ccc(F)cc1Cl)N1CCn2c(nnc2-c2cccc3cc[nH]c23)C1 |
| 31.6 nM | O=C(c1cccc(C(F)(F)F)c1Cl)N1CCn2c(nnc2C2CC2)C1 |
| 25.1 nM | COc1cccc(-c2nnc3n2CCN(C(=O)c2ccc(F)cc2Cl)C3)c1 |
| 25.1 nM | O=C(c1ccc(F)cc1Cl)N1CCn2c(-c3ccc(F)cn3)cnc2C1 |
| 25.1 nM | CCCc1nnc2n1CCN(C(=O)c1cccc(C(F)(F)F)c1Cl)C2 |
| 25.1 nM | O=C(c1cccc(C(F)(F)F)c1Cl)N1CCn2c(nnc2C2CCCC2)C1 |
| 20 nM | O=C(c1ccc(F)c(Cl)c1)N1CCn2c(nnc2-c2cnccn2)C1 |
| 20 nM | O=C(c1ccccc1Cl)N1CCn2c(nnc2-c2cnccn2)C1 |
| 20 nM | O=C(c1ccc(Cl)c(F)c1Cl)N1CCn2c(nnc2-c2ccncn2)C1 |
| 20 nM | O=C(c1ccc(Cl)cc1C(F)(F)F)N1CCn2c(nnc2-c2cnccn2)C1 |
| 15.8 nM | O=C(c1ccc(Cl)cc1Cl)N1CCn2c(nnc2-c2ccc(F)cc2)C1 |
| 15.8 nM | Cc1cc(F)ccc1C(=O)N1CCn2c(nnc2-c2cnccn2)C1 |
| 15.8 nM | O=C(c1ccc(F)cc1Cl)N1CCn2c(nnc2-c2cccc(F)c2)C1 |
| 12.6 nM | O=C(c1ccc(Cl)cc1Cl)N1CCn2c(nnc2-c2ccc(F)cn2)C1 |

| IC50 | Compound |
| --- | --- |
| 12.6 nM | O=C(c1cccc(Cl)c1Cl)N1CCn2c(nnc2-c2ccc(F)cc2F)C1 |
| 12.6 nM | O=C(c1ccc(F)c(C(F)(F)F)c1)N1CCn2c(nnc2-c2cnccn2)C1 |
| 12.6 nM | O=C(c1ccc(F)cc1Cl)N1CCn2c(nnc2-c2cccc(Cl)c2)C1 |
| 12.6 nM | O=C(c1cccc(C(F)(F)F)c1Cl)N1CCn2c(Cl)cnc2C1 |
| 10 nM | O=C(c1ccccc1Cl)N1CCn2c(nnc2-c2cscn2)C1 |
| 5.01 nM | O=C(c1cccc(C(F)(F)F)c1F)N1CCn2c(nnc2-c2ccccn2)C1 |
| 3.98 nM | O=C(c1cccc(C(F)(F)F)c1Cl)N1CCn2c(-c3ccc(F)cn3)cnc2C1 |
| 3.98 nM | O=C(c1ccc(F)cc1Cl)N1CCn2c(-c3cnccn3)cnc2C1 |
| 3.16 nM | O=C(c1ccc(Cl)cc1Cl)N1CCn2c(nnc2-c2cnccn2)C1 |
| 3.16 nM | O=C(c1cccc(Cl)c1Cl)N1CCn2c(nnc2-c2ccc(F)cc2)C1 |
| 3.16 nM | O=C(c1cccc(C(F)(F)F)c1Cl)N1CCn2c(nc(Cl)c2Cl)C1 |
| 2.51 nM | O=C(c1cccc(C(F)(F)F)c1Cl)N1CCn2c(nc(Cl)c2Br)C1 |
| 2.51 nM | O=C(c1cccc(C(F)(F)F)c1Cl)N1CCn2c(nnc2-c2ccccc2O)C1 |
| 2 nM | O=C(c1ccc(Cl)cc1Cl)N1CCn2c(nnc2-c2cscn2)C1 |
| 2 nM | O=C(c1ccc(F)c(Cl)c1Cl)N1CCn2c(nnc2-c2cnccn2)C1 |
| 2 nM | O=C(c1ccc(Cl)c(F)c1Cl)N1CCn2c(nnc2-c2cnccn2)C1 |
| 2 nM | O=C(c1cccc(C(F)(F)F)c1Cl)N1CCn2c(-c3cnccn3)cnc2C1 |
| 1.58 nM | O=C(c1ccc(F)c(Cl)c1Cl)N1CCn2c(nnc2-c2ccc(F)cn2)C1 |
| 1.58 nM | O=C(c1cccc(C(F)(F)F)c1Cl)N1CCn2c(-c3nccs3)cnc2C1 |
| 1.58 nM | O=C(c1cccc(C(F)(F)F)c1Cl)N1CCn2c(-c3ncccn3)cnc2C1 |
| 1.26 nM | O=C(c1cccc(C(F)(F)F)c1Cl)N1CCn2c(-c3cscn3)cnc2C1 |
